Experimental findings from PMC12135066, “Design and Preclinical Evaluation of Novel uPAR-Targeting Radiopeptides Modified with an Albumin-Binding Entity” (Molecular Pharmaceutics, 2025) are described below.

The series deals with HEK-uPAR xenograft-bearing nude mice. Kind of series: Biodistribution studies in HEK-uPAR xenograft-bearing nude mice. Particulars: average ± SD, n=3 animals.

On to `CC(C)C[C@H](NC(=O)[C@H](Cc1ccc(O)cc1)NC(=O)[C@@H](CCCNC(=N)N)NC(=O)[C@@H](CO)NC(=O)[C@H](Cc1ccccc1)NC(=O)[C@H](CC1CCCCC1)NC(=O)[C@H](CC(=O)O)NC(=O)[C@H](CCCCNC(=O)CCCc1ccc(I)cc1)NC(=O)[C@@H](N)CCCCNC(=O)CN1CCN(CC(=O)O)CCN(CC(=O)O)CCN(CC(=O)O)CC1)C(=O)N[C@@H](Cc1c[nH]c2ccccc12)C(=O)N[C@@H](CO)C(N)=O` [[^177Lu]Lu-uPAR-04, metal not drawn], for which, under “4 h p.i.”, the Xenograft-to-blood ratio came to 0.28 ± 0.01, the Xenograft-to-kidney ratio is listed as 0.62 ± 0.01 and the Xenograft-to-liver ratio was 0.93 ± 0.08. Moreover, for the setting “24 h p.i.”, the Xenograft-to-blood ratio is reported as 0.61 ± 0.09, the Xenograft-to-kidney ratio is reported as 0.73 ± 0.15 and the Xenograft-to-liver ratio is listed as 1.4 ± 0.2.
Regarding `CC(C)C[C@H](NC(=O)[C@H](Cc1ccc(O)cc1)NC(=O)[C@@H](CCCNC(=N)N)NC(=O)[C@@H](CO)NC(=O)[C@H](Cc1ccccc1)NC(=O)[C@H](CC1CCCCC1)NC(=O)[C@H](CC(=O)O)NC(=O)CN1CCN(CC(=O)O)CCN(CC(=O)O)CCN(CC(=O)O)CC1)C(=O)N[C@@H](Cc1c[nH]c2ccccc12)C(=O)N[C@@H](CO)C(N)=O` [[^177Lu]Lu-DOTA-AE105, metal not drawn, reference compound], where the note is “4 h p.i., 5 MBq, 0.5 nmol, decay-corrected”, the HEK-uPAR xgft is recorded as 0.87 ± 0.05 % IA/g. Besides, where the note is “4 h p.i.”, the Xenograft-to-blood ratio worked out at 11 ± 1, the Xenograft-to-kidney ratio was 0.58 ± 0.03 and the Xenograft-to-liver ratio is on record as 8.6 ± 0.4. Further, under “24 h p.i.”, the Xenograft-to-blood ratio was 32 ± 13, the Xenograft-to-kidney ratio came out at 0.33 ± 0.14 and the Xenograft-to-liver ratio came to 2.4 ± 0.9.
On to `CC(C)C[C@H](NC(=O)[C@H](Cc1ccc(O)cc1)NC(=O)[C@@H](CCCNC(=N)N)NC(=O)[C@@H](CO)NC(=O)[C@H](Cc1ccccc1)NC(=O)[C@H](CC1CCCCC1)NC(=O)[C@H](CC(=O)O)NC(=O)CCOCCOCCOCCOCCNC(=O)[C@H](CCCCNC(=O)CCCc1ccc(I)cc1)NC(=O)CN1CCN(CC(=O)O)CCN(CC(=O)O)CCN(CC(=O)O)CC1)C(=O)N[C@@H](Cc1c[nH]c2ccccc12)C(=O)N[C@@H](CO)C(N)=O` [[^177Lu]Lu-uPAR-05, metal not drawn], for which, for the setting “4 h p.i.”, the Xenograft-to-blood ratio came out at 0.42 ± 0.07, the Xenograft-to-kidney ratio is recorded as 1.4 ± 0.2 and the Xenograft-to-liver ratio worked out at 0.98 ± 0.10. In addition, where the note is “24 h p.i.”, the Xenograft-to-blood ratio is recorded as 0.66 ± 0.12, the Xenograft-to-kidney ratio is reported as 1.9 ± 0.3 and the Xenograft-to-liver ratio turned out to be 2.9 ± 0.3.
For `CC(C)C[C@H](NC(=O)[C@H](Cc1ccc(O)cc1)NC(=O)[C@@H](CCCNC(=N)N)NC(=O)[C@@H](CO)NC(=O)[C@H](Cc1ccccc1)NC(=O)[C@H](CC1CCCCC1)NC(=O)[C@H](CC(=O)O)NC(=O)[C@H](CCCCNC(=O)CCCc1ccc(I)cc1)NC(=O)CN1CCN(CC(=O)O)CCN(CC(=O)O)CCN(CC(=O)O)CC1)C(=O)N[C@@H](Cc1c[nH]c2ccccc12)C(=O)N[C@@H](CO)C(N)=O` [[^177Lu]Lu-uPAR-01, metal not drawn], where the note is “4 h p.i.”, the Xenograft-to-blood ratio came out at 0.57 ± 0.01, the Xenograft-to-kidney ratio came out at 1.6 ± 0.1 and the Xenograft-to-liver ratio was found to be 1.4 ± 0.1. Besides, under “24 h p.i.”, the Xenograft-to-blood ratio stood at 1.3 ± 0.1, the Xenograft-to-kidney ratio is 1.4 ± 0.3 and the Xenograft-to-liver ratio worked out at 3.3 ± 0.3.
